Patent US11124510B2, “Alkyl chain modified imidazoquinoline TLR7/8 agonist compounds and uses thereof” (Dynavax Technologies Corporation, priority 2017, dated 2021)

Tests used:
TLR8 = TLR8 (Homo sapiens (Human), UniProt Q9NR97); assay: TLR8 agonist bioactivity: induction of TNFα protein in monocyte cultures (ELISA, 24 h); format: cell-based
Description: Monocytes were magnetically isolated from PBMCs, prepared as described above, following labeling with CD14 microbeads (Miltenyi Biotec, San Diego Calif.), according to the manufacturer's instructions. […] Culture supernatants were collected and tumor necrosis factor alpha (TNFα) protein levels were measured by ELISA (MabTech, Cincinnati Ohio), according to the manufacturer's instructions.

CT26 colon carcinoma = assay: Anti-tumor efficacy, repeated intratumoral dosing in CT26 colon carcinoma-bearing wild-type mice; format: in vivo; settings: 0.5-20 μg in 95% sesame oil/5% ethanol
Description: The effect of repeated weekly doses of intratumorally delivered pharmaceutical compositions comprised of Compound No. 63-10, 63-18, or 63-33 formulated in 95% sesame oil/5% ethanol (v/v) on tumor growth inhibition was assessed in syngeneic CT26 colon carcinoma-bearing Balb/c mice. All in vivo procedures were conducted in accordance with approved Institutional Animal Care and Use Committee (IACUC) protocols. The animals were housed in a facility that is accredited by the Association for Accreditation and Laboratory Animal Care (AALAC, Frederick, Md.). Wild-type female Balb/c mice (15-20 gm) were obtained from Envigo (Hayward, Calif.) and acclimated for 2-3 days prior to use.
The pharmaceutical compositions were made with the three compounds at final concentrations of 5, 50, and 200 μg/mL in a manner similar to that described in Example B2-1. […] On day 0, mice were anesthetized with 1% isoflurane and 80,000 CT26 tumor cells in 200 uL of RMPI-1640 culture media plus 2.5% fetal bovine serum were injected subcutaneously in the right flank. Tumors were allowed to grow until they were ˜35 mm^3, at which point animals were assigned to groups to begin treatment. Mice were injected weekly for 4 weeks intratumorally with 100 uL of a pharmaceutical composition comprising 20, 5, or 0.5 μgs of Compound No. 63-10, or 20 or 5 μgs of Compound Nos. 63-18, or 63-33 formulated in 95% sesame oil/5% ethanol (v/v), or a vehicle control, twice weekly for 3 weeks (experimental days 9, 12, 16, 19, 23, and 26). The TLR9 CpG agonist was injected intratumorally with 100 μL of a pharmaceutical composition comprised of 50 μgs of compound formulated in phosphate buffered saline on the same dosing schedule. Tumor sizes were measured twice weekly from days 8 through day 30 with calipers, with tumor volumes calculated using the formula: length, multiplied by width, multiplied by width, divided by 2.

TLR8, sequence (Q9NR97 27-1041): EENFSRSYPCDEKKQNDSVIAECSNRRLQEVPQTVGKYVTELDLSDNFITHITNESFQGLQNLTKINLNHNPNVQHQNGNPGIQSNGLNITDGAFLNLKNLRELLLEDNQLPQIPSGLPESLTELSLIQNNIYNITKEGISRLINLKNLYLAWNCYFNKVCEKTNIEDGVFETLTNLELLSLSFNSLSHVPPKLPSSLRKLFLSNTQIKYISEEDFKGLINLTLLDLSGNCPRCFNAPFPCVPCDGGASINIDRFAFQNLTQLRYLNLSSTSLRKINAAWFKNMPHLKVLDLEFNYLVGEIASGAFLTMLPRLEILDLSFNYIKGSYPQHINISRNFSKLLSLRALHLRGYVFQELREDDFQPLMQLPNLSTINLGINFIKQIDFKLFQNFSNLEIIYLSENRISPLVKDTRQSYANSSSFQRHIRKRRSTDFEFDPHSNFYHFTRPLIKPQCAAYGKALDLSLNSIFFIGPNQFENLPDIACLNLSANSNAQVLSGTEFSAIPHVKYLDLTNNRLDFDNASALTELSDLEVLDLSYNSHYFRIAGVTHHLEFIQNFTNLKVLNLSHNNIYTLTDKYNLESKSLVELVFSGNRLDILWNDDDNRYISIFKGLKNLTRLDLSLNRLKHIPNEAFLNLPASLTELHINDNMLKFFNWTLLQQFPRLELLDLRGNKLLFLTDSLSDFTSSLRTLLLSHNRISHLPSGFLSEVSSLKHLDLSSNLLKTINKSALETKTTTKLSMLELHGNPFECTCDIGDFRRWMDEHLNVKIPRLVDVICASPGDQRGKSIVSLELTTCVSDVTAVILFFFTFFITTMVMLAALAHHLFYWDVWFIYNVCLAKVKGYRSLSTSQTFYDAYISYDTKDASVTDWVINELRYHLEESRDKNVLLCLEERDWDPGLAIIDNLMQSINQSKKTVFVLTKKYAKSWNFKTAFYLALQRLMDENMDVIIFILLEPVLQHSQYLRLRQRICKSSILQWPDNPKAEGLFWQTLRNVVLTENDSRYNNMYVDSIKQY

EC50 (TLR8; TNFα induction, human monocytes, 24 hours): 522 nM
fold loss of TLR8 agonist potency compared to Compound No. 63-00 (IMDQ) (TLR8; less potent than IMDQ): 2.4 fold
SMILES: CCCCCCCCCCCCCC(=O)NCc1ccc(Cn2c(CCCC)nc3c(N)nc4ccccc4c32)cc1 [Compound No. 63-10, N-(4-((4-amino-2-butyl-1H-imidazo[4,5-c]quinolin-1-yl)methyl)benzyl)tetradecanamide]
CT26 tumor growth control compared to the vehicle control (CT26 colon carcinoma): robust CT26 tumor growth control
